These results are taken from US20050009840A1 (SUGEN, INC., priority 2003, published 2005).

Molecules are shown by their SMILES. Read-outs that look alike come from different tables or passages of the source. A value given as a limit tells only on which side of the number the result lay.

The target in this assay is T1, Met kinase domain (GST fusion protein) (Homo sapiens, UniProt P08581).
T1 construct: Purified GST fusion protein containing the Met kinase domain
As to the kind of experiment: Met transphosphorylation assay (ELISA, poly(glu-tyr) substrate).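 Note: Cell-free ELISA with plate-bound poly(Glu:Tyr 4:1) phosphorylated by GST-fused Met kinase domain plus ATP and Mn2+, phosphotyrosine detected by anti-phosphotyrosine antibody with HRP and ABTS read-out.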 Type of assay: biochemical. As to conditions: read-out: Met IC50. In general terms: ELISA stands for enzyme-linked immunosorbent assay.

[1] abbreviates: plain numbers in column Met IC50 (μM) of Table 2.

T1 sequence (P08581 1078-1345 limits assumed): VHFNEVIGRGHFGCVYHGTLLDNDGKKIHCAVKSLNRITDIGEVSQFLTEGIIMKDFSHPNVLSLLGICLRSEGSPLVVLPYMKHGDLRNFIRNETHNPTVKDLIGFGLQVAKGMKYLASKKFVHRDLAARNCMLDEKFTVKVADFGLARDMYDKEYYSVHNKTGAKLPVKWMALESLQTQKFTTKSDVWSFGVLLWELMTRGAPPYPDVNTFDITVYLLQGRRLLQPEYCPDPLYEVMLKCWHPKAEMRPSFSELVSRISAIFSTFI

For the molecule `CC(Oc1cc(-c2ccc(C(=O)N3CCN(C)CC3)cc2)cnc1N)c1c(Cl)ccc(F)c1Cl` (centres unmarked) [Example I-295, (4-{6-Amino-5-[1-(2,6-dichloro-3-fluoro-phenyl)-ethoxy]-pyridin-3-yl}-phenyl)-(4-methyl-piperazin-1-yl)-methanone], where the note is “Table 2”, the IC50 (as a rule, the concentration that inhibits the measured activity by half) came out at 0.079 µM.
Consider `CC(Oc1cc(-c2ccncc2)cnc1N)c1c(F)ccc(F)c1Cl` (centres unmarked) [Example I-528, 5-[1-(2-Chloro-3,6-difluoro-phenyl)-ethoxy]-[3,4′]bipyridinyl-6-ylamine], for which the half-inhibitory concentration (IC50) under setting [1] came to 0.0659 µM.
For `Nc1ncc(-c2cccc(C(=O)NCCCN3CCCC3)c2)nc1OCc1cccc(F)c1C(F)(F)F` [II-125, 3-[5-Amino-6-(3-fluoro-2-trifluoromethyl-benzyloxy)-pyrazin-2-yl]-N-(3-pyrrolidin-1-yl-propyl)-benzamide], the IC50 stood at 0.22 µM.
In the case of `CN(C)CCS(=O)(=O)Nc1cccc(-c2cnc(N)c(OCc3c(F)ccc(F)c3Cl)n2)c1` [II-28, 2-Dimethylamino-ethanesulfonic acid {3-[5-amino-6-(2-chloro-3,6-difluoro-benzyloxy)-pyrazin-2-yl]-phenyl}-amide], the IC50 was 2.28 µM.
Regarding `Nc1ncc(Br)cc1OCc1ccccc1` [I(b), 3-Benzyloxy-5-bromo-pyridin-2-ylamine], the IC50 is above 20 µM.
As for `Nc1ncc(-c2cccc(C(=O)NCCN3CCCC3)c2)cc1OCc1c(F)ccc(F)c1Cl` [Example I-235, 3-[6-Amino-5-(2-chloro-3,6-difluoro-benzyloxy)-pyridin-3-yl]-N-(2-pyrrolidin-1-yl-ethyl)-benzamide], the IC50 (Table 2) stood at 0.26 µM.
For the molecule `CC(Oc1nc(-c2cccc(C(=O)N3CC[C@H](N)C3)c2)cnc1N)c1c(Cl)ccc(F)c1Cl` (stereo partly drawn) [II-84, (3-{5-Amino-6-[1-(2,6-dichloro-3-fluoro-phenyl)-ethoxy]-pyrazin-2-yl}-phenyl)-[(3S)-3-amino-pyrrolidin-1-yl)-m-ethanone], the IC50 worked out at 0.069 µM.
For the molecule `CC(Oc1nc(-c2ccc(C(=O)N3CCC(N4CCCC4)CC3)cc2)cnc1N)c1c(Cl)ccc(F)c1Cl` (centres unmarked) [II-152, (4-{5-Amino-6-[1-(2,6-dichloro-3-fluoro-phenyl)-ethoxy]-pyrazin-2-yl}-phenyl)-(4-pyrrolidin-1-yl-piperidin-1-yl)-methanone], the IC50 was determined as 0.11 µM.
`Nc1ncc(-c2ccc(C(=O)NCCN3CCOCC3)cc2)cc1OCc1ccccc1C(F)(F)F` [Example I-191, 4-[6-Amino-5-(2-trifluoromethyl-benzyloxy)-pyridin-3-yl]-N-(2-morpholin-4-yl-ethyl)-benzamide]: under “Table 2”, the IC50 stood at 5.2 µM.
Turning to `Nc1ncc(-c2ccccc2)cc1OCc1cccc(C(F)(F)F)c1Cl` [Example I-94, 3-(2-Chloro-3-trifluoromethyl-benzyloxy)-5-phenyl-pyridin-2-ylamine], the IC50 was above 20 µM.
`CC(Oc1cc(-c2cccc(C(=O)NCCCN3CCCC3)c2)cnc1N)c1c(Cl)ccc(F)c1Cl` (centres unmarked) [Example I-320, 3-{6-Amino-5-[1-(2,6-dichloro-3-fluoro-phenyl)-ethoxy]-pyridin-3-yl}-N-(3-pyrrolidin-1-yl-propyl)-benzamide]: the concentration for half-maximal inhibition (IC50) (Table 2) came out at 0.13 µM.
`Nc1ncc(-c2ccccc2OC(F)(F)F)cc1OCc1c(Cl)cccc1Cl` [Example I-29, 3-(2,6-Dichloro-benzyloxy)-5-(2-trifluoromethoxy-phenyl)-pyridin-2-ylamine]: the IC50 is above 20 µM.
With `CC(Oc1cc(-c2cccc(C(=O)N3CCC[C@@H]3CN3CCCC3)c2)cnc1N)c1c(F)ccc(F)c1Cl` (some centres unmarked) [Example I-351], the IC50 (Table 2) stood at 0.23 µM.
For the molecule `CCN(CC)CCS(=O)(=O)Nc1cccc(-c2cnc(N)c(OCc3c(F)ccc(F)c3Cl)n2)c1` [II-25, 2-Diethylamino-ethanesulfonic acid {3-[5-amino-6-(2-chloro-3,6-difluoro-benzyloxy)-pyrazin-2-yl]-phenyl}-amide], the IC50 is 3.7 µM.
`Nc1ncc(-c2cccc(C(=O)NCCN3CCOCC3)c2)nc1OCc1c(F)ccc(F)c1Cl` [II-58, 3-[5-Amino-6-(2-chloro-3,6-difluoro-benzyloxy)-pyrazin-2-yl]-N-(2-morpholin-4-yl-ethyl)-benzamide]: the IC50 was 2.5 µM.
As to `CC(Oc1nc(-c2ccc(C(=O)N3CCN(C)CC3)cc2)cnc1N)c1c(Cl)ccc(F)c1Cl` (centres unmarked) [II-154, (4-{5-Amino-6-[1-(2,6-dichloro-3-fluoro-phenyl)-ethoxy]-pyrazin-2-yl}-phenyl)-(4-methyl-piperazin-1-yl)-methanone], the IC50 amounted to 0.16 µM.
In the case of `Nc1ncc(-c2cccc(NS(=O)(=O)CCNCC3CC3)c2)nc1OCc1c(F)ccc(F)c1Cl` [II-30, 2-(Cyclopropylmethyl-amino)-ethanesulfonic acid {3-[5-amino-6-(2-chloro-3,6-difluoro-benzyloxy)-pyrazin-2-yl]-phenyl}-amide], the IC50 came to 1.84 µM.
For `Nc1ncc(-c2cccc(C(=O)O)c2)cc1OCc1c(Cl)cccc1Cl` [Example I-53, 3-[6-Amino-5-(2,6-dichloro-benzyloxy)-pyridin-3-yl]-benzoic acid], the IC50 is 16 µM.
Consider `CS(=O)(=O)Nc1ccccc1-c1cnc(N)c(OCc2c(Cl)cccc2Cl)c1` [Example I-26, N-{2-[6-Amino-5-(2,6-dichloro-benzyloxy)-pyridin-3-yl]-phenyl}-methanesulfonamide], for which the IC50 was above 20 µM.
On to `CC(Oc1cc(-c2ccc(C(=O)N3CC[C@@H](N)C3)cc2)cnc1N)c1c(Cl)ccc(F)c1Cl` (stereo partly drawn) [Example I-304, (4-{6-Amino-5-[1-(2,6-dichloro-3-fluoro-phenyl)-ethoxy]-pyridin-3-yl}-phenyl)-((R)-3-amino-pyrrolidin-1-yl)-methanone], for which, for the setting “Table 2”, the 50% inhibitory concentration (IC50) was 0.072 µM.
For the molecule `Nc1ncc(-c2ccc(C(=O)N3CC[C@H](N)C3)cc2)cc1OCc1ccccc1C(F)(F)F` [Example I-186, [(3S)-3-Amino-pyrrolidin-1-yl]-{4-[6-amino-5-(2-trifluoromethyl-benzyloxy)-pyridin-3-yl]-phenyl}-methanone], where the note is “Table 2”, the IC50 amounted to 0.79 µM.
With `CC(Oc1nc(-c2ccc(C(=O)NCCCN3CCCC3)cc2)cnc1N)c1c(F)ccc(F)c1Cl` (centres unmarked) [II-109, 4-{5-Amino-6-[1-(2-chloro-3,6-difluoro-phenyl)-ethoxy]-pyrazin-2-yl}-N-(3-pyrrolidin-1-yl-propyl)-benzamide], the 50% inhibitory concentration (IC50) was found to be 0.1 µM.
Same read-out and setting: the figure for `CN1CCC(NC(=O)c2ccc(-c3cnc(N)c(OCc4cccc(F)c4C(F)(F)F)n3)cc2)CC1` [II-95, 4-[5-Amino-6-(3-fluoro-2-trifluoromethyl-benzyloxy)-pyrazin-2-yl]-N-(1-methyl-piperidin-4-yl)-benzamide] is 0.081 µM; for `CN1CCN(C(=O)c2ccc(-c3cnc(N)c(OCc4c(Cl)cccc4Cl)c3)cc2)CC1` [Example I-38, {4-[6-Amino-5-(2,6-dichloro-benzyloxy)-pyridin-3-yl]-phenyl}-(4-methyl-piperazin-1-yl)-methanone] it is 1.02 µM.
With `Nc1ncc(-c2cncnc2)cc1OCc1c(F)ccc(F)c1Cl` [Example I-503, 3-(2-Chloro-3,6-dlfluoro-benzyloxy)-5-pyrimidin-5-yl-pyridin-2-ylamine], under setting [1], the IC50 was found to be 2.15 µM.
With `Nc1ncc(-c2ccc(C(=O)N3CCC(CCO)CC3)cc2)cc1OCc1c(Cl)cccc1Cl` [Example I-42, {4-(6-Amino-5-(2,6-dichloro-benzyloxy)-pyridin-3-yl]-phenyl}-[4-(2-hydroxy-ethyl)-piperidin-1-yl]-methanone], the half-maximal inhibitory concentration (IC50) turned out to be 0.56 µM.
